pIC50: −log10 of the molar value.

Sequence of PD-L1 His protein / PD-1 Fc protein (Q9NZQ7 19-238 limits assumed): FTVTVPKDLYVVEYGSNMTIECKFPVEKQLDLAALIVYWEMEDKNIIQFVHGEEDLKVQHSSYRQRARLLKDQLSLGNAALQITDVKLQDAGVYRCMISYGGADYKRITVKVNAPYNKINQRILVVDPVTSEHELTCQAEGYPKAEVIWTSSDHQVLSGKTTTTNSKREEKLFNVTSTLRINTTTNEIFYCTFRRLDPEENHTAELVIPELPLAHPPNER

The assay has as its target PD-L1 His protein / PD-1 Fc protein (Homo sapiens, UniProt Q9NZQ7). In words: HTRF Assay (PD-1/PD-L1 interaction). It is filed as binding. The settings on record: PD-L1 His 6 nM, PD-1 Fc 6 nM. In a few lines:
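Compounds tested from 20 μM down to 0.001 μM (3-fold) against 6 nM PD-L1 His and 6 nM PD-1 Fc, 15 min room temperature incubation. Detection after 1 h at room temperature with Tb cryptate anti-6HIS and XL665 anti-human IgG reagents (mixture at 0.35 nM and 6.7 nM), HTRF signal.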
In general, pIC50 refers to −log10 of the IC50, conventionally taken in molar units. The low end stands for a large IC50, the high end for a small IC50. With `COc1nc(-c2cccc(-c3cccc(-c4ccn5c(=O)c(CNC[C@@H](O)CC(=O)N(C)C)cnc5c4)c3Cl)c2Cl)cc(F)c1CNC[C@@H]1CCC(=O)N1` [Example 336, (3S)-4-[[8-[2-Chloro-3-[2-chloro-3-[4-fluoro-6-methoxy-5-[[[(2S)-5-oxopyrrolidin-2-yl]methylamino]methyl]-2-pyridyl]phenyl]phenyl]-4-oxo-pyrido[1,2-a]pyrimidin-3-yl]methylamino]-3-hydroxy-N,N-dimethyl-butanamide], the pIC50 was 10.00. Under `Cc1c(-c2ccn3c(=O)c(CNC[C@@H]4CCC(=O)N4)cnc3c2)cccc1-c1cccc(-c2ccc3c(n2)N(C)CCC3NC[C@@H]2CCC(=O)N2)c1Cl` (mixture of isomers) [Example 68, 8-(2′-Chloro-2-methyl-3′-(8-methyl-5-((((S)-5-oxopyrrolidin-2-yl)methyl)amino)-5,6,7,8-tetrahydro-1,8-naphthyridin-2-yl)-[1,1′-biphenyl]-3-yl)-3-(((((S)-5-oxopyrrolidin-2-yl)methyl)amino)methyl)-4H-pyrido[1,2-a]pyrimidin-4-one] stands 7.96; under `Cc1c(-c2ccn3c(=O)c(CNC[C@@H]4CCC(=O)N4)cnc3c2)cccc1-c1cccc(-c2ccc3c(c2)CC(NC(=O)[C@@H]2CCCN2)C3)c1Cl` (mixture of isomers) [Example 46, (2S)—N-(5-(2-Chloro-2′-methyl-3′-(4-oxo-3-(((((S)-5-oxopyrrolidin-2-yl)methyl)amino)methyl)-4H-pyrido[1,2-a]pyrimidin-8-yl)-[1,1′-biphenyl]-3-yl)-2,3-dihydro-1H-inden-2-yl)pyrrolidine-2-carboxamide], 6.28; under `COc1nc(-c2cccc(-c3cccc(-c4ccn5c(=O)c(CNCC6(C)CCC(=O)N6)cnc5c4)c3Cl)c2Cl)ccc1CNC[C@@H]1CCC(=O)N1` (stereo partly drawn) [Example 368, 8-(2,2′-dichloro-3′-(6-methoxy-5-(((((S)-5-oxopyrrolidin-2-yl)-methyl)-amino)-methyl)-pyridin-2-yl)-[1,1′-biphenyl]-3-yl)-3-((((2-methyl-5-oxopyrrolidin-2-yl)methyl)-amino)-methyl)-4H-pyrido[1,2-a]pyrimidin-4-one], 9.00. With `COC(=O)C(C)(C)CNCc1nn2cc(-c3cccc(-c4cccc(-c5ccc(CNC[C@@H]6CCC(=O)N6)c(OC)n5)c4Cl)c3Cl)cc2c(=O)n1C` [Example 495, Methyl 3-[[6-[2-chloro-3-[2-chloro-3-[6-methoxy-5-[[[(2S)-5-oxopyrrolidin-2-yl]methylamino]methyl]-2-pyridyl]phenyl]phenyl]-3-methyl-4-oxo-pyrrolo[2,1-f][1,2,4]triazin-2-yl]methylamino]-2,2-dimethyl-propanoate], the pIC50 is 9.15. The same measure for `N#CCCOc1cc(/C=C/c2cccc(-c3cccc(-c4ccn5c(=O)c(CNC[C@@H]6CCC(=O)N6)cnc5c4)c3Cl)c2Cl)c(Cl)cc1CN1CC[C@H](C(=O)O)C1` [Example 173, (S)-1-(5-Chloro-2-(2-cyanoethoxy)-4-((E)-2-(2,2′-dichloro-3′-(4-oxo-3-(((((S)-5-oxopyrrolidin-2-yl)methyl)amino)methyl)-4H-pyrido[1,2-a]pyrimidin-8-yl)-[1,1′-biphenyl]-3-yl)vinyl)benzyl)pyrrolidine-3-carboxylic acid]: 9.40; for `Cc1c(COc2cc(OCc3cncc(C#N)c3)c(CNC[C@H]3CCC(=O)N3)cc2Cl)cccc1-c1cccc(-c2ccn3c(=O)c(CNC[C@H]4CCC(=O)N4)cnc3c2)c1C` [Example 13, 5-((4-Chloro-5-((2,2′-dimethyl-3′-(4-oxo-3-(((((R)-5-oxopyrrolidin-2-yl)methyl)amino)methyl)-4H-pyrido[1,2-a]pyrimidin-8-yl)-[1,1′-biphenyl]-3-yl)methoxy)-2-(((((R)-5-oxopyrrolidin-2-yl)methyl)amino)methyl)phenoxy)methyl)nicotinonitrile]: 9.10. The same measure for `COc1nc(-c2cccc(-c3cccc(-c4ccn5c(=O)c(C)c(CN[C@H]6C[C@](C)(O)C6)nc5c4)c3Cl)c2Cl)ccc1CNC[C@@H]1CCC(=O)N1` [Example 373, 8-(2,2′-Dichloro-3′-(6-methoxy-5-(((((S)-5-oxopyrrolidin-2-yl)methyl)amino)methyl)pyridin-2-yl)-[1,1′-biphenyl]-3-yl)-2-((((1r,3r)-3-hydroxy-3-methylcyclobutyl)amino)methyl)-3-methyl-4H-pyrido[1,2-a]pyrimidin-4-one]: 7.48; for `Cc1c(-c2ccn3c(=O)c(CNC[C@@H]4CCC(=O)N4)cnc3c2)cccc1-c1cccc(-c2ccc(CNC[C@@H]3CCC(=O)N3)c(N(C)C)n2)c1Cl` [Example 64, 8-(2′-Chloro-3′-(6-(dimethylamino)-5-(((((S)-5-oxopyrrolidin-2-yl)methyl)amino)methyl)pyridin-2-yl)-2-methyl-[1,1′-biphenyl]-3-yl)-3-(((((S)-5-oxopyrrolidin-2-yl)methyl)amino)methyl)-4H-pyrido[1,2-a]pyrimidin-4-one]: 7.43; for `COc1nc(-c2cccc(-c3cccc(-c4ccn5c(=O)c(CN6C[C@@H](O)[C@H](O)C6)cnc5c4)c3Cl)c2Cl)ccc1CNC[C@@H]1CCC(=O)N1` [Example 347, 8-(2,2′-Dichloro-3′-(6-methoxy-5-(((((S)-5-oxopyrrolidin-2-yl)methyl)amino)methyl)pyridin-2-yl)-[1,1′-biphenyl]-3-yl)-3-(((3R,4R)-3,4-dihydroxypyrrolidin-1-yl)methyl)-4H-pyrido[1,2-a]pyrimidin-4-one]: 6.28.

With `COc1nc(-c2cccc(-c3cccc(-c4cnc5c(Cl)c(CNC[C@@H]6CCC(=O)N6)sc5c4)c3Cl)c2Cl)ccc1CNC[C@@H]1CCC(=O)N1` [Example 123, (S)-5-((((3-Chloro-6-(2,2′-dichloro-3′-(6-methoxy-5-(((((S)-5-oxopyrrolidin-2-yl)methyl)amino)methyl)pyridin-2-yl)-[1,1′-biphenyl]-3-yl)thieno[3,2-b]pyridin-2-yl)methyl)amino)methyl)pyrrolidin-2-one], the pIC50 was 9.70. Under `COc1nc(-c2cccc(-c3cccc(-c4ccn5c(=O)c(CNC[C@@H]6CCC(=O)N6)cnc5c4)c3Cl)c2Cl)ccc1CN1CC[C@H](C(=O)O)C1` [Example 118, (S)-1-((6-(2,2′-Dichloro-3′-(4-oxo-3-(((((S)-5-oxopyrrolidin-2-yl)methyl)amino)methyl)-4H-pyrido[1,2-a]pyrimidin-8-yl)-[1,1′-biphenyl]-3-yl)-2-methoxypyridin-3-yl)methyl)pyrrolidine-3-carboxylic acid] stands 9.70. In turn, `COc1nc(-c2cccc(-c3cccc(-c4ccn5c(=O)c(CNCC(O)C6CC6)cnc5c4)c3Cl)c2Cl)ccc1CNC[C@@H]1CCC(=O)N1` (mixture of isomers) [Example 274, 3-(((2-Cyclopropyl-2-hydroxyethyl)amino)methyl)-8-(2,2′-dichloro-3′-(6-methoxy-5-(((((S)-5-oxopyrrolidin-2-yl)methyl)amino)methyl)pyridin-2-yl)-[1,1′-biphenyl]-3-yl)-4H-pyrido[1,2-a]pyrimidin-4-one] showed a negative logarithm of the IC50 (pIC50) of 7.19.

For the compound `COC(=O)CCCNCc1cnc2cc(-c3cccc(-c4cccc(-c5ccc(CNC[C@@H]6CCC(=O)N6)c(OC)n5)c4Cl)c3Cl)ccn2c1=O` [Example 137, Methyl (S)-4-(((8-(2,2′-dichloro-3′-(6-methoxy-5-((((5-oxopyrrolidin-2-yl)methyl)amino)methyl)pyridin-2-yl)-[1,1′-biphenyl]-3-yl)-4-oxo-4H-pyrido[1,2-a]pyrimidin-3-yl)methyl)amino)butanoate], the pIC50 is 8.77. Under `COc1nc(-c2cccc(-c3cccc(-c4ccn5c(=O)c(CN6CC(C(=O)O)C6)cnc5c4)c3Cl)c2Cl)ccc1CNC[C@@H]1CCC(=O)N1` [Example 98, (S)-1-((8-(2,2′-Dichloro-3′-(6-methoxy-5-((((5-oxopyrrolidin-2-yl)methyl)amino)methyl)pyridin-2-yl)-[1,1′-biphenyl]-3-yl)-4-oxo-4H-pyrido[1,2-a]pyrimidin-3-yl)methyl)azetidine-3-carboxylic acid] stands 9.52.

In the case of `COC(=O)C1CN(Cc2cc(=O)n3ccc(-c4cccc(-c5cccc(-c6ccc(CNC[C@@H]7CCC(=O)N7)c(OC)n6)c5Cl)c4Cl)cc3n2)C1` [Example 343, (S)-Methyl 1-((8-(2,2′-dichloro-3′-(6-methoxy-5-((((5-oxopyrrolidin-2-yl)methyl)amino)methyl)pyridin-2-yl)-[1,1′-biphenyl]-3-yl)-4-oxo-4H-pyrido[1,2-a]pyrimidin-2-yl)methyl) azetidine-3-carboxylate], the pIC50 is 10.00.

On to `Cc1c(-c2ccn3c(=O)c(CNC[C@@H]4CCC(=O)N4)cnc3c2)cccc1-c1cccc(-c2ccc(CNC[C@@H]3CCC(=O)N3)cn2)c1Cl` [Example 61, 8-(2′-Chloro-2-methyl-3′-(5-(((((S)-5-oxopyrrolidin-2-yl)methyl)amino)methyl)pyridin-2-yl)-[1,1′-biphenyl]-3-yl)-3-(((((S)-5-oxopyrrolidin-2-yl)methyl)amino)methyl)-4H-pyrido[1,2-a]pyrimidin-4-one], for which the pIC50 is 7.80. `COc1nc(-c2cccc(-c3cccc(-c4ccn5c(=O)c(CNC[C@@H]6CCC(=O)N6)cnc5c4)c3C(F)(F)F)c2Cl)ccc1CNC[C@@H]1CCC(=O)N1` [Example 208, 8-(2′-Chloro-3′-(6-methoxy-5-(((((S)-5-oxopyrrolidin-2-yl)methyl)amino)methyl)pyridin-2-yl)-2-(trifluoromethyl)-[1,1′-biphenyl]-3-yl)-3-(((((S)-5-oxopyrrolidin-2-yl)methyl)amino)methyl)-4H-pyrido[1,2-a]pyrimidin-4-one] had a pIC50 of 7.42. In turn, `O=C1CC[C@@H](CNCc2ccc(-c3cccc(-c4cccc(-c5ccn6c(=O)c(CNC[C@@H]7CCC(=O)N7)cnc6c5)c4Cl)c3Cl)nc2OC2CC2)N1` [Example 109, 8-(2,2′-Dichloro-3′-(6-cyclopropoxy-5-(((((S)-5-oxopyrrolidin-2-yl)methyl)amino)methyl)pyridin-2-yl)-[1,1′-biphenyl]-3-yl)-3-(((((S)-5-oxopyrrolidin-2-yl)methyl)amino)methyl)-4H-pyrido[1,2-a]pyrimidin-4-one] gave a pIC50 of 8.85.

These data come from patent US20230143612A1 (Arbutus Biopharma Corporation, priority 2020, published 2023).
